# Data as given in patent publication US20080207614A1, “QUINAZOLINE DERIVATIVES FOR THE TREATMENT AND PREVENTION OF DIABETES AND OBESITY” (SK CHEMICALS CO., LTD., priority 2004, published 2008).
# What was measured:
# [1] = test system: C2C12 muscle cells; test: Analysis of glucose absorption (2-deoxyglucose) in differentiated C2C12 muscle cells; format: cell-based; details: test materials 10 μM, times relative to control group
# Outline: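 Uptake of 0.2 μCi 2-deoxyglucose over 20 min, counted radiometrically in lysed cells. Before tracer, compounds (10 μM) were applied for 30 min to C2C12 cells differentiated 6 days in 1% serum and equilibrated 3 h in 5 mM glucose KRB.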
# [2] = test system: AMPK; test: Measurement of AMPK activity by Western blot in C2C12 cells; format: cell-based; design: key to AMPK activity (degree of phosphorylation of serine-79 and threonine-172): fold increase in threonine-172 phosphorylation; details: 10 μM for 50 minutes, no superscript: Western blot of serine-79 and threonine-172 phosphorylation
# Outline: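 Western blot readout of AMPK Thr-172 and ACC Ser-79 phosphorylation, normalised against ERK, served as the activity measure. Cells were C2C12 after differentiation, treated 50 minutes with 10 μM test material. Grading by Thr-172 increase: ≥3-fold strong, 1-3-fold mild, <1-fold weak.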
Compound,Glucose absorption [1],AMPK activity (degree of phosphorylation of serine-79 and threonine-172) [2]
"COc1cccc(CNc2nc(C(C)c3ccccc3)nc3ccccc23)c1OC (stereo not shown) [Compound 375, (2,3-Dimethoxybenzyl)-[2-(1-phenylethyl)-quinazolino-4-yl]-amine]",1.1,5.2
"COc1cc(CNc2nc(C(C)c3ccccc3)nc3ccccc23)cc(OC)c1 (stereo not shown) [Compound 376, (3,5-Dimethoxybenzyl)-[2-(1-phenylethyl)-quinazolino-4-yl]-amine]",1.1,1.1
"COc1ccc(CNc2nc(C(C)c3ccccc3)nc3ccccc23)cc1OC (stereo not shown) [Compound 377, (3,4-Dimethoxybenzyl)-[2-(1-phenylethyl)-quinazolino-4-yl]-amine]",1.1,2.3
"COc1cc(CNc2nc(C(C)c3ccccc3)nc3ccccc23)cc(OC)c1OC (stereo not shown) [Compound 378, [2-(1-Phenylethyl)-quinazolino-4-yl]-(3,4,5-trimethoxybenzyl)-amine]",0.9,4.7
"COc1ccc(CNc2nc(C(C)c3ccccc3)nc3ccccc23)c(OC)c1 (stereo not shown) [Compound 379, (2,4-Dimethoxybenzyl)-[2-(1-phenylethyl)-quinazolino-4-yl]-amine]",1.1,6.1
"COc1ccc(OC)c(CNc2nc(C(C)c3ccccc3)nc3ccccc23)c1 (stereo not shown) [Compound 380, (2,5-Dimethoxybenzyl)-[2-(1-phenylethyl)-quinazolino-4-yl]-amine]",1.0,1.9
"COc1cc(OC)c(CNc2nc(C(C)c3ccccc3)nc3ccccc23)c(OC)c1 (stereo not shown) [Compound 381, [2-(1-Phenylethyl)-quinazolino-4-yl]-(2,4,6-trimethoxybenzyl)-amine]",1.2,4.0
"COc1ccccc1CNc1nc(C2CC2)nc2ccccc12 [Compound 382, (2-Cyclopropylquinazolino-4-yl)-(2-methoxybenzyl)-amine]",1.2,2.2
"COc1cccc(CNc2nc(C3CC3)nc3ccccc23)c1 [Compound 383, (2-Cyclopropylquinazolino-4-yl)-(3-methoxybenzyl)-amine]",1.4,2.2
"COc1ccc(CNc2nc(C3CC3)nc3ccccc23)cc1 [Compound 384, (2-Cyclopropylquinazolino-4-yl)-(4-methoxybenzyl)-amine]",1.2,2.0
"COc1cc(CNc2nc(C3CC3)nc3ccccc23)cc(OC)c1 [Compound 387, (2-Cyclopropylquinazolino-4-yl)-(3,5-dimethoxybenzyl)-amine]",1.2,1.5
"COc1ccc(CNc2nc(C3CC3)nc3ccccc23)cc1OC [Compound 388, (2-Cyclopropylquinazolino-4-yl)-(3,4-dimethoxybenzyl)-amine]",1.2,2.8
"COc1cc(CNc2nc(C3CC3)nc3ccccc23)cc(OC)c1OC [Compound 389, (2-Cyclopropylquinazolino-4-yl)-(3,4,5-trimethoxybenzyl)-amine]",1.3,2.2
"COc1ccc(CNc2nc(C3CC3)nc3ccccc23)c(OC)c1 [Compound 390, (2-Cyclopropylquinazolino-4-yl)-(2,4-dimethoxybenzyl)-amine]",1.1,3.8
"COc1ccc(OC)c(CNc2nc(C3CC3)nc3ccccc23)c1 [Compound 391, (2-Cyclopropylquinazolino-4-yl)-(2,5-dimethoxybenzyl)-amine]",1.2,7.1
"COc1cc(OC)c(CNc2nc(C3CC3)nc3ccccc23)c(OC)c1 [Compound 392, (2-Cyclopropylquinazolino-4-yl)-(2,4,6-trimethoxybenzyl)-amine]",1.1,2.7

Compound,Glucose absorption [1],AMPK activity (degree of phosphorylation of serine-79 and threonine-172) [2]
"CCCc1nc(NCc2cccc(OC)c2)c2ccccc2n1 [Compound 394, (3-Methoxybenzyl)-(2-propylquinazolino-4-yl)-amine]",1.3,4.5
"CCCc1nc(NCc2ccc(OC)cc2)c2ccccc2n1 [Compound 395, (4-Methoxybenzyl)-(2-propylquinazolino-4-yl)-amine]",1.2,7.0
"CCCc1nc(NCc2ccc3c(c2)OCO3)c2ccccc2n1 [Compound 396, Benzo[1,3]dioxol-5-ylmethyl-(2-propylquinazolino-4-yl)-amine]",1.3,7.3
"CCCc1nc(NCc2cccc(OC)c2OC)c2ccccc2n1 [Compound 397, (2,3-Dimethoxybenzyl)-(2-propylquinazolino-4-yl)-amine]",1.3,6.5
"CCCc1nc(NCc2cc(OC)cc(OC)c2)c2ccccc2n1 [Compound 398, (3,5-Dimethoxybenzyl)-(2-propylquinazolino-4-yl)-amine]",1.4,7.8
"CCCc1nc(NCc2ccc(OC)c(OC)c2)c2ccccc2n1 [Compound 399, (3,4-Dimethoxybenzyl)-(2-propylquinazolino-4-yl)-amine]",1.2,4.9
"COc1ccccc1CNc1ncnc2ccccc12 [Compound 404, (2-Methoxybenzyl)-quinazolino-4-ylamine]",2.1,1.9
"COc1cccc(CNc2ncnc3ccccc23)c1 [Compound 405, (3-Methoxybenzyl)-quinazolino-4-ylamine]",2.2,2.7
"COc1ccc(CNc2ncnc3ccccc23)cc1 [Compound 406, (4-Methoxybenzyl)-quinazolino-4-ylamine]",2.1,1.5
"c1ccc2c(NCc3ccc4c(c3)OCO4)ncnc2c1 [Compound 407, Benzo[1,3]dioxol-5-ylmethylquinazolino-4-ylamine]",1.5,1.3
"COc1cccc(CNc2ncnc3ccccc23)c1OC [Compound 408, (2,3-Dimethoxybenzyl)-quinazolino-4-ylamine]",1.6,3.5
"COc1cc(CNc2ncnc3ccccc23)cc(OC)c1 [Compound 409, (3,5-Dimethoxybenzyl)-quinazolino-4-ylamine]",1.6,3.3
"COc1cc(CNc2ncnc3ccccc23)cc(OC)c1OC [Compound 411, Quinazolino-4-yl-(3,4,5-trimethoxybenzyl)-amine]",1.2,1.8
"COc1ccc(CNc2ncnc3ccccc23)c(OC)c1 [Compound 412, (2,4-Dimethoxybenzyl)-quinazolino-4-ylamine]",1.7,8.4
"COc1ccc(OC)c(CNc2ncnc3ccccc23)c1 [Compound 413, (2,5-Dimethoxybenzyl)-quinazolino-4-ylamine]",1.2,1.7
"COc1cc(OC)c(CNc2ncnc3ccccc23)c(OC)c1 [Compound 414, Quinazolino-4-yl-(2,4,6-trimethoxybenzyl)-amine]",1.5,2.9
